Results published in PMC5855688, “BC-Box Motif-Mediated Neuronal Differentiation of Somatic Stem Cells” (International Journal of Molecular Sciences, 2018).

Assays:
Type in all cases: cell-based, rat (neonate Wistar)
[1] = system: skin-derived precursors (SKPs); experiment: Neurite outgrowth / morphological evaluation of neuronal differentiation; settings: for Morphological change: phase-contrast microscopy, Figure 1E
Procedure: (§1) Rodent skin-derived precursor cells (SKPs), which can differentiate to neurons, were used. SKPs were previously isolated from the back dermis of neonate Wistar rats by the authors. These cells were cultured in growth medium composed of DMEM/F12 (1:1; Gibco, Grand Island, NY, USA) containing 2% B27 supplement (Gibco), 20 ng/mL epidermal growth factor (EGF; Upstate Biotechnology, Lake Placid, NY, USA), and 40 ng/mL bFGF (PeproTech EC Ltd., Rocky Hill, NJ, USA) in a humidified incubator at 37 °C with 5% CO2. The floating clusters of cultured cells were centrifuged and dissociated into a single-cell suspension by use of a Pasteur pipette with a flame-polished tip. These single cells were then re-suspended into at a concentration of 50,000 cells/mL for passage or experiments.
(§2) For neuronal differentiation, cells were dissociated into a single-cell suspension by use of a Pasteur pipette and re-suspended into a concentration of 50,000 cells/mL in DMEM/F12 without serum, neurotrophic factors or growth factors. Then, the cells were cultured on poly-L-lysine-coated dishes or cover glasses, and the synthesized peptides at concentrations from 1 to 5 μM were added to the culture medium and delivered into the cells. Three days or more later, the cells were used for morphological, immunocytochemical, immunohistochemical, electrophysiological and immunoprecipitation studies, as well as for Western blot analysis.
Neurite outgrowth with length exceeding the diameter of the neuronal soma is often assessed as a morphological index of neuronal differentiation. After a single-cell suspension was made by pipetting, the cells were cultured in DMEN/F12 medium alone at 37 °C in a 5% CO2 incubator. Thereafter, neurite outgrowth was evaluated with the following 4 levels: +++, for above 50% of the cells showing neurite outgrowth; ++, for 20–50% with neurite outgrowth; +, for 5–19% having neurite outgrowth; and −, for below 5% of the cells with neurite outgrowth.

[2] = system: skin-derived precursors (SKPs); experiment: Western blot analysis of neuronal markers in NDD peptide-treated cells; settings: Figure 6A; for Expression of GAD: glutamic acid decarboxylase; for Expression of ChAT: choline acetyltransferase; for Expression of TH: tyrosine hydroxylase
Procedure: as §1, §2
(§3) Cultured cells were washed 3 times in cold PBS and then scraped into ice-cold PBS. After incubation on ice for 10 min, the cells were lysed with lysis buffer and centrifuged, after which the supernatants were collected. Each sample was separated by SDS-PAGE under reducing conditions and transferred electrophoretically to nitrocellulose filters. Non-specific binding of antibody was blocked by incubation with 5% donkey serum for 1 h. Western blots were probed with anti-MAP2 antibody, anti-NFH antibody, anti-ChAT antibody, anti-GAD antibody, anti-rhodopsin antibody, anti-TH antibody, and anti-elongin C antibody (Santa Cruz, San Diego, CA, USA) followed by horseradish peroxidase-conjugated secondary antibodies. Protein bands were detected by using a chemical luminescence detection system (ECL Plus Western Blotting Reagent Pack, Amersham, Hemel Hempstead, UK). Images were analyzed with LAS-1000 (Fujifilm, Tokyo, Japan), and the density of the bands was determined by using Image Gauge software (Fujifilm).

[3] = system: skin-derived precursors (SKPs); experiment: Immunocytochemistry of neuronal markers in NDD peptide-treated cells; settings: Figure 6B
Procedure: as §1, §2
(§4) Cultured cells were fixed with 4% paraformaldehyde in PBS (Phosphate buffered saline) for 10 min at room temperature. Cells were incubated for 1 h at room temperature with primary antibodies. Antibodies against anti-MAP2 antibody (Sigma-Aldrich, St. Louis, MO, USA), anti-Neurofilment-H (NFH) antibody (Sigma-Aldrich), anti-NeuN antibody (Merk Millipore, Billerica, MA, USA), anti-GFAP antibody (DAKO, Santa Clara, CA, USA), anti-tyrosine hydroxylase (TH) antibody (Merk Millipore, Billerica, MA, USA), anti-choline acetyl transferase (ChAT) antibody (Abbiotec, San Diego, CA, USA), anti-glutamic acid decaboxylase (GAD) antibody (Enzo Life Sciences, Flamingdale, NY, USA), and anti-rhodopsin antibody (Santa Cruz, San Diego, CA, USA) were used. After incubation with primary antibody, the cells were incubated for 1 h with secondary antibody, either rhodamine-conjugated anti-mouse IgG (Sigma-Aldrich) or FITC-conjugated anti-rabbit IgG (Sigma-Aldrich). Nuclear counterstaining was done with DAPI (Molecular Probes, Eugene, OR, USA) or TO-PRO-3 (Molecular Probes), and observations were made with a fluorescence microscope system (FV300, Olympus, Tokyo, Japan). We counted the number of immuno-positive cells with a given antibody in 4 to 6 random non-overlapping visual fields (50–200 cells per field) in each experiment. At least 2 experiments were performed per condition. The degree of positivity was expressed as the rate of immuno-positive cells to the total number of nuclei stained with DAP1 or TO-PRO-3.

[4] = system: skin-derived precursors (SKPs); experiment: Immunocytochemistry with anti-Neurofilament-H (NFH) antibody; settings: ten divided pVHL sequences compared, Figure 1C; peptides at 1 to 5 μM
Procedure: as §1, §2
as §4, with “After incubation with primary antibody, the cells were incubated for 1 h with secondary antibody, either rhodamine-conjugated anti-mouse IgG (Sigma-Aldrich) or FITC-conjugated anti-rabbit IgG (Sigma-Aldrich).” left out, “At least 2 experiments were performed per condition.” left out

[5] = system: skin-derived precursors (SKPs); experiment: Western blot analysis of NFH protein; settings: ten divided pVHL sequences compared, Figure 1B, peptides at 1 to 5 μM
Procedure: as §1, §2, §3

[6] = BC-box motif plus five C-terminal amino acids peptides, delivered with TAT PTD, 1 to 5 μM
[7] = BC-box motif alone (10-residue) peptides, delivered with TAT PTD, 1 to 5 μM

YARAAARQARATLQHFCRLAINKCT G [SOCS2 BC-box motif plus five amino acids]
Neurite Outgrowth Activity [1, 6]: + (5–19% having neurite outgrowth) | Expression of rhodopsin [2]: moderate | Expression of GAD [2]: expressed highly

YARAAARQARASLQHLCRFRIRQLVR [SOCS7 BC-box motif plus five amino acids]
Neurite Outgrowth Activity [1, 6]: +++ (above 50% of the cells showing neurite outgrowth) | Expression of ChAT [2]: high | Expression of TH [2]: pronounced | Rate of ChAT-positive (cholinergic neuron-like) cells [3]: high rates of positive cells

YARAAARQARASLQYLCRFVI [SOCS6 BC-box motif alone]
Neurite Outgrowth Activity [1, 7]: - (below 5% of the cells with neurite outgrowth)

YARAAARQARA SLQYICRAVI [SOCS5 BC-box motif alone]
Neurite Outgrowth Activity [1, 7]: + (5–19% having neurite outgrowth)

YARAAARQARASLKHLCRKALRSFLT [WSB2 BC-box motif plus five amino acids]
Neurite Outgrowth Activity [1, 6]: ++ (20–50% with neurite outgrowth) | Expression of ChAT [2]: moderate | Expression of GAD [2]: expressed highly | Expression of TH [2]: moderate | Rate of GAD-positive (GABAnergic neuron-like) cells [3]: high rates of positive cells | Rate of TH-positive (dopaminergic neuron-like) cells [3]: high rates of positive cells

YARAAARQARATLQHLCRKTVNGHLD [SOCS3 BC-box motif plus five amino acids]
Neurite Outgrowth Activity [1, 6]: ++ (20–50% with neurite outgrowth) | Expression of TH [2]: moderate | Rate of GAD-positive (GABAnergic neuron-like) cells [3]: high rates of positive cells

YARAAARQARASLQYLCRFVIRQYTR [SOCS6 BC-box motif plus five amino acids]
Neurite Outgrowth Activity [1, 6]: ++ (20–50% with neurite outgrowth) | Expression of TH [2]: moderate | Rate of TH-positive (dopaminergic neuron-like) cells [3]: high rates of positive cells

YARAAARQARATLLESSARTI [LRR-1 BC-box motif alone]
Neurite Outgrowth Activity [1, 7]: - (below 5% of the cells with neurite outgrowth)

YARAAARQARASLQHLCRFRI [SOCS7 BC-box motif alone]
Neurite Outgrowth Activity [1, 7]: + (5–19% having neurite outgrowth)

YARAAARQARATLLESSARTILHNRI [LRR-1 BC-box motif plus five amino acids]
Neurite Outgrowth Activity [1, 6]: ++ (20–50% with neurite outgrowth) | Expression of GAD [2]: expressed highly | Rate of GAD-positive (GABAnergic neuron-like) cells [3]: high rates of positive cells | Rate of TH-positive (dopaminergic neuron-like) cells [3]: high rates of positive cells

YARAAARQARAPLQELCRQRIVAAVG [SOCS1 BC-box motif plus five amino acids]
Neurite Outgrowth Activity [1, 6]: ++ (20–50% with neurite outgrowth) | Expression of ChAT [2]: moderate | Expression of TH [2]: moderate

YARAAARQARA SLKHLCRKAL [WSB2 BC-box motif alone]
Neurite Outgrowth Activity [1, 7]: - (below 5% of the cells with neurite outgrowth)

YARAAARQARASLQHICRTVICNCTT [SOCS4 BC-box motif plus five amino acids]
Neurite Outgrowth Activity [1, 6]: ++ (20–50% with neurite outgrowth) | Expression of rhodopsin [2]: moderate | Expression of GAD [2]: expressed highly

YARAAARQARAMPRRAENWDEAEV [VHL(1–13), pVHL fragment conjugated with PTD]
Morphological change ([1]; peptides at 1 to 5 μM): no morphological change

YARAAARQARATLQHLCRKTV [SOCS3 BC-box motif alone]
Neurite Outgrowth Activity [1, 7]: - (below 5% of the cells with neurite outgrowth)

YARAAARQARASLQYICRAVICRCTT [SOCS5 BC-box motif plus five amino acids]
Neurite Outgrowth Activity [1, 6]: +++ (above 50% of the cells showing neurite outgrowth) | Expression of rhodopsin [2]: highly expressed | Rate of TH-positive (dopaminergic neuron-like) cells [3]: high rates of positive cells | Rate of rhodopsin-positive cells [3]: high rates of positive cells

YARAAARQARASLQHICRTVI [SOCS4 BC-box motif alone]
Neurite Outgrowth Activity [1, 7]: - (below 5% of the cells with neurite outgrowth)

YARAAARQARASLTHLCRLEIRSSIK [ASB3 BC-box motif plus five amino acids]
Rate of GAD-positive (GABAnergic neuron-like) cells [3]: high rates of positive cells | Rate of TH-positive (dopaminergic neuron-like) cells [3]: high rates of positive cells

YARAAARQARA PLQELCRQRI [SOCS1 BC-box motif alone]
Neurite Outgrowth Activity [1, 7]: - (below 5% of the cells with neurite outgrowth)

YARAAARQARATLQHFCRLAI [SOCS2 BC-box motif alone]
Neurite Outgrowth Activity [1, 7]: - (below 5% of the cells with neurite outgrowth)

YARAAARQARAVYTLKERCLQVVRSLVK [VHL(155–171), pVHL fragment conjugated with PTD]
Morphological change ([1]; peptides at 1 to 5 μM): assumed a neuron-like morphology | Rate of cells having neurites ([1]; ten divided pVHL sequences compared, Figure 1D, peptides at 1 to 5 μM, three days or more): greatest rate | Rate of immunoreactivity for Neurofilament-H (NFH) [4]: greatest rate of immunoreactivity | NFH protein expression [5]: greatest expression

YARAAARQARA TLKERCLQVV [VHL(157–166), pVHL BC-box motif alone, conjugated with PTD]
Neurite Outgrowth Activity [1, 7]: - (below 5% of the cells with neurite outgrowth) | Neurite Outgrowth Activity ([1]; Figure 2A, rates of cells having neurites, peptides at 1 to 5 μM, VHL157–168 vs VHL(157–171) p < 0.005): scarcely did
